Test results: patent US7897582B2, “Oligonucleotide compositions and methods for the modulation of the expression of B7 protein” (Isis Pharmaceuticals, Inc., priority 2003, dated 2011)
Strand notation (5' to 3'): a small letter for the sugar, then the base; units joined by * are phosphorothioate-linked, units joined directly phosphodiester-linked; [ ] holds rarer units or linkages, { } end groups; capitals alone tell only the bases. e = 2'-O-(2-methoxyethyl) (MOE); [5mC] = 5-methylcytosine; d = 2'-deoxy (DNA)

Key:
Human B7-1 mRNA = Human B7-1 mRNA expression in COS-7 cells, screened as in Example 4; assay type: cell-based
human B7.2 mRNA = experiment: Human B7.2 mRNA levels in THP-1 cells by quantitative real-time PCR (Example 27); assay type: cell-based; design: concentration or dose not given beside the values
Text: In accordance with the present invention, an additional series of antisense compounds were designed to target different regions of the human B7.2 RNA, using published sequences (GenBank accession number U04343.1, incorporated herein as SEQ ID NO: 295, GenBank accession number BC040261.1, incorporated herein as SEQ ID NO: 296 and GenBank accession number NT—005543.12, a portion of which is incorporated herein as SEQ ID NO: 297). “Target site” indicates the first (5′-most) nucleotide number on the particular target sequence to which the compound binds. All compounds in Table 25 are chimeric oligonucleotides (“gapmers”) 20 nucleotides in length, composed of a central “gap” region consisting of ten 2′-deoxynucleotides, which is flanked on both sides (5′ and 3′ directions) by five-nucleotide “wings”. The wings are composed of 2′-methoxyethyl (2′-MOE)nucleotides. The internucleoside (backbone) linkages are phosphorothioate (P═S) throughout the oligonucleotide. All cytidine residues are 5-methylcytidines. The compounds were analyzed for their effect on human B7.2 mRNA levels in THP-1 cells by quantitative real-time PCR as described in other examples herein. Data are averages from three experiments. If present, “N.D.” indicates “no data”.

Substance	% mRNA EXPRESSION (Human B7-1 mRNA; human B7-1 mRNA, Table 7) [%]	% mRNA INHIBITION (Human B7-1 mRNA; human B7-1 mRNA, Table 7) [%]	% INHIB (inhibition of human B7.2 mRNA levels) (human B7.2 mRNA) [%]	also measured
22329 (antisense e[5mC]*e[5mC]*eT*e[5mC]*e[5mC]*dA*dG*dA*dG*dG*dT*dT*dG*dA*dG*e[5mC]*eA*eA*eA*eT) [compound 22329]	59	41		
22330 (antisense e[5mC]*e[5mC]*eA*eA*e[5mC]*d[5mC]*dA*dG*dG*dA*dG*dA*dG*dG*dT*eG*eA*eG*eG*e[5mC]) [compound 22330]	54	46		
22331 (antisense eG*eA*eA*eG*e[5mC]*dT*dG*dT*dG*dG*dT*dT*dG*dG*dT*eT*eG*eT*e[5mC]*eA) [compound 22331]	62	38		
22332 (antisense eT*eT*eG*eA*eA*dG*dG*dT*d[5mC]*dT*dG*dA*dT*dT*d[5mC]*eA*e[5mC]*eT*e[5mC]*eT) [compound 22332]	67	33		
22333 (antisense eA*eA*eG*eG*eT*dA*dA*dT*dG*dG*d[5mC]*d[5mC]*d[5mC]*dA*dG*eG*eA*eT*eG*eG) [compound 22333]	73	27		
22336 (antisense eA*eG*e[5mC]*e[5mC]*e[5mC]*d[5mC]*dT*dT*dG*d[5mC]*dT*dT*d[5mC]*dT*dG*e[5mC]*eG*eG*eA*e[5mC]) [compound 22336]	55	45		
22339 (antisense eG*eT*eA*eA*eA*dA*d[5mC]*dA*dG*d[5mC]*dT*dT*dA*dA*dA*eT*eT*eT*eG*eT) [compound 22339]	69	31		
22340 (antisense eA*eG*eA*eA*eG*dA*dG*dG*dT*dT*dA*d[5mC]*dA*dT*dT*eA*eA*eG*e[5mC]*eA) [compound 22340]	71	29		
22341 (antisense eA*eG*eA*eT*eA*dA*dT*dG*dA*dA*dT*dT*dG*dG*d[5mC]*eT*eG*eA*e[5mC]*eA) [compound 22341]	59	41		
24733 (antisense eG*e[5mC]*eG*eT*e[5mC]*dA*dT*d[5mC]*dA*dT*d[5mC]*d[5mC]*dG*d[5mC]*dA*e[5mC]*e[5mC]*eA*eT*e[5mC]) [compound 24733]				% mRNA EXPRESSION (Human B7-1 mRNA; 10 nM, COS-7, Table 8): 90%; % mRNA INHIBITION (Human B7-1 mRNA; 10 nM, COS-7, Table 8): 10%; % mRNA EXPRESSION (Human B7-1 mRNA; 30 nM, COS-7, Table 8): 91%; % mRNA INHIBITION (Human B7-1 mRNA; 30 nM, COS-7, Table 8): 9%; % mRNA EXPRESSION (Human B7-1 mRNA; 100 nM, COS-7, Table 8): 90%; % mRNA INHIBITION (Human B7-1 mRNA; 100 nM, COS-7, Table 8): 10%; % mRNA EXPRESSION (Human B7-1 mRNA; 300 nM, COS-7, Table 8): 80%; % mRNA INHIBITION (Human B7-1 mRNA; 300 nM, COS-7, Table 8): 20%
24734 (antisense e[5mC]*eG*eT*eT*eG*d[5mC]*dT*dT*dG*dT*dG*d[5mC]*d[5mC]*dG*dA*e[5mC]*eA*eG*eT*eG) [compound 24734]				% mRNA EXPRESSION (Human B7-1 mRNA; 10 nM, COS-7, Table 8): 94%; % mRNA INHIBITION (Human B7-1 mRNA; 10 nM, COS-7, Table 8): 6%; % mRNA EXPRESSION (Human B7-1 mRNA; 30 nM, COS-7, Table 8): 96%; % mRNA INHIBITION (Human B7-1 mRNA; 30 nM, COS-7, Table 8): 4%; % mRNA EXPRESSION (Human B7-1 mRNA; 100 nM, COS-7, Table 8): 94%; % mRNA INHIBITION (Human B7-1 mRNA; 100 nM, COS-7, Table 8): 6%; % mRNA EXPRESSION (Human B7-1 mRNA; 300 nM, COS-7, Table 8): 84%; % mRNA INHIBITION (Human B7-1 mRNA; 300 nM, COS-7, Table 8): 16%
24735 (antisense eG*e[5mC]*eT*e[5mC]*eA*d[5mC]*dG*dA*dA*dG*dA*dA*d[5mC]*dA*d[5mC]*e[5mC]*eT*eT*e[5mC]*e[5mC]) [compound 24735]				% mRNA EXPRESSION (Human B7-1 mRNA; 10 nM, COS-7, Table 8): 100%; % mRNA EXPRESSION (Human B7-1 mRNA; 30 nM, COS-7, Table 8): 95%; % mRNA INHIBITION (Human B7-1 mRNA; 30 nM, COS-7, Table 8): 5%; % mRNA EXPRESSION (Human B7-1 mRNA; 100 nM, COS-7, Table 8): 81%; % mRNA INHIBITION (Human B7-1 mRNA; 100 nM, COS-7, Table 8): 19%; % mRNA EXPRESSION (Human B7-1 mRNA; 300 nM, COS-7, Table 8): 75%; % mRNA INHIBITION (Human B7-1 mRNA; 300 nM, COS-7, Table 8): 25%
323624 (antisense eG*eT*eT*eA*e[5mC]*dT*d[5mC]*dA*dG*dT*d[5mC]*d[5mC]*d[5mC]*dA*dT*eA*eG*eT*eG*e[5mC]) [compound 323624]			59	
323625 (antisense e[5mC]*eA*eA*eA*eG*dA*dG*dA*dA*dT*dG*dT*dT*dA*d[5mC]*eT*e[5mC]*eA*eG*eT) [compound 323625]			21	
323626 (antisense e[5mC]*e[5mC]*eA*eT*e[5mC]*dA*d[5mC]*dA*dA*dA*dG*dA*dG*dA*dA*eT*eG*eT*eT*eA) [compound 323626]			32	
323627 (antisense eG*eG*eA*eA*eG*dG*d[5mC]*d[5mC]*dA*dT*d[5mC]*dA*d[5mC]*dA*dA*eA*eG*eA*eG*eA) [compound 323627]			54	
323628 (antisense eG*eA*eG*e[5mC]*eA*dG*dG*dA*dA*dG*dG*d[5mC]*d[5mC]*dA*dT*e[5mC]*eA*e[5mC]*eA*eA) [compound 323628]			44	
323629 (antisense e[5mC]*e[5mC]*eA*eG*eA*dG*dA*dG*d[5mC]*dA*dG*dG*dA*dA*dG*eG*e[5mC]*e[5mC]*eA*eT) [compound 323629]			36	
323630 (antisense eA*eA*eA*eT*eA*dA*dG*d[5mC]*dT*dT*dG*dA*dA*dT*d[5mC]*eT*eT*e[5mC]*eA*eG) [compound 323630]			22	
